Results published in PubChem BioAssay AID2060885 (Molecular Pharmacology Branch, DTP, NCI, 2025).

System: NCI-H23 complex spheroids with HUVEC/MSC, viability
Test: Anticancer human tumor NCI-H23 cell line growth inhibition [RAS];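 further: spheroids exposed to compound for 7 days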;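 on viability, T/C: 100% = DMSO vehicle control viability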
Conditions: for IC50: curve of first compound; for viability, T/C: stronger effect = lower value
Method in brief: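 Tumour cells grown as complex spheroids with HUVEC endothelial cells and mesenchymal stem cells, treated with RAS pathway inhibitor combinations. Each agent spans half-log steps from near clinical Cmax, or 10 microM where Cmax is unknown.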

[1] = second compound 0.000949 µM, first compound 0.0316 µM
[2] = second compound 0.000949 µM, first compound 0.1 µM
[3] = second compound 0.000949 µM, first compound 0.316 µM
[4] = second compound 0.000949 µM, first compound 1 µM
[5] = second compound 0.000949 µM, first compound 3.16 µM
[6] = second compound 0.000949 µM, first compound 10 µM
[7] = second compound 0.003 µM, first compound 0.0316 µM
[8] = second compound 0.003 µM, first compound 0.1 µM
[9] = second compound 0.003 µM, first compound 0.316 µM
[10] = second compound 0.003 µM, first compound 1 µM
[11] = second compound 0.003 µM, first compound 3.16 µM
[12] = second compound 0.003 µM, first compound 10 µM
[13] = second compound 0.00949 µM, first compound 0.0316 µM
[14] = second compound 0.00949 µM, first compound 0.1 µM
[15] = second compound 0.00949 µM, first compound 0.316 µM
[16] = second compound 0.00949 µM, first compound 1 µM
[17] = second compound 0.00949 µM, first compound 3.16 µM
[18] = second compound 0.00949 µM, first compound 10 µM
[19] = second compound 0.03 µM, first compound 0.0316 µM
[20] = second compound 0.03 µM, first compound 0.1 µM
[21] = second compound 0.03 µM, first compound 0.316 µM
[22] = second compound 0.03 µM, first compound 1 µM
[23] = second compound 0.03 µM, first compound 3.16 µM
[24] = second compound 0.03 µM, first compound 10 µM
[25] = second compound 0.0949 µM, first compound 0.0316 µM
[26] = second compound 0.0949 µM, first compound 0.1 µM
[27] = second compound 0.0949 µM, first compound 0.316 µM
[28] = second compound 0.0949 µM, first compound 1 µM
[29] = second compound 0.0949 µM, first compound 3.16 µM
[30] = second compound 0.0949 µM, first compound 10 µM
[31] = second compound 0.3 µM, first compound 0.0316 µM
[32] = second compound 0.3 µM, first compound 0.1 µM
[33] = second compound 0.3 µM, first compound 0.316 µM
[34] = second compound 0.3 µM, first compound 1 µM
[35] = second compound 0.3 µM, first compound 3.16 µM
[36] = second compound 0.3 µM, first compound 10 µM

CC(C)NCC(C(=O)N1CCN(c2ncnc3c2C(C)CC3O)CC1)c1ccc(Cl)cc1 (stereo unspecified) + CCn1c(-c2cccnc2C(C)OC)c2c3cc(ccc31)N1CCOC(CC(NC(=O)C(C(C)C)N(C)C(=O)C3(F)CCN(C(=O)C#CC(C)(C)N(C)C)CC3)C(=O)N3CCCC(N3)C(=O)OCC(C)(C)C2)C1
IC50 (second compound 0.000949 µM): < 31.6 nM
IC50 (second compound 0.003 µM): < 31.6 nM
IC50 (second compound 0.00949 µM): < 31.6 nM
IC50 (second compound 0.03 µM): < 31.6 nM
IC50 (second compound 0.0949 µM): < 31.6 nM
IC50 (second compound 0.3 µM): < 31.6 nM
viability, T/C [1]: 33.6%
viability, T/C [2]: 35.1%
viability, T/C [3]: 23.7%
viability, T/C [4]: 23.4%
viability, T/C [5]: 17.5%
viability, T/C [6]: 11.6%
viability, T/C [7]: 33.8%
viability, T/C [8]: 27.3%
viability, T/C [9]: 22%
viability, T/C [10]: 18.7%
viability, T/C [11]: 18.1%
viability, T/C [12]: 10.3%
viability, T/C [13]: 28.9%
viability, T/C [14]: 24.2%
viability, T/C [15]: 25.3%
viability, T/C [16]: 19.6%
viability, T/C [17]: 14.9%
viability, T/C [18]: 12.3%
viability, T/C [19]: 30.9%
viability, T/C [20]: 25.3%
viability, T/C [21]: 25.2%
viability, T/C [22]: 20.4%
viability, T/C [23]: 13.8%
viability, T/C [24]: 12.3%
viability, T/C [25]: 24.3%
viability, T/C [26]: 26.8%
viability, T/C [27]: 22.6%
viability, T/C [28]: 19.6%
viability, T/C [29]: 13.3%
viability, T/C [30]: 12.5%
viability, T/C [31]: 21.4%
viability, T/C [32]: 23.2%
viability, T/C [33]: 22%
viability, T/C [34]: 16.6%
viability, T/C [35]: 11.6%
viability, T/C [36]: 13.5%

CC(C)n1nc(-c2ccc3oc(N)nc3c2)c2c(N)ncnc21 + CCn1c(-c2cccnc2C(C)OC)c2c3cc(ccc31)N1CCOC(CC(NC(=O)C(C(C)C)N(C)C(=O)C3(F)CCN(C(=O)C#CC(C)(C)N(C)C)CC3)C(=O)N3CCCC(N3)C(=O)OCC(C)(C)C2)C1
IC50 (second compound 0.000949 µM): < 0.316 nM
IC50 (second compound 0.003 µM): < 0.316 nM
IC50 (second compound 0.00949 µM): < 0.316 nM
IC50 (second compound 0.03 µM): < 0.316 nM
IC50 (second compound 0.0949 µM): < 0.316 nM
IC50 (second compound 0.3 µM): < 0.316 nM
viability, T/C (second compound 0.000949 µM, first compound 0.000316 µM): 33.1%
viability, T/C (second compound 0.000949 µM, first compound 0.001 µM): 33.1%
viability, T/C (second compound 0.000949 µM, first compound 0.00316 µM): 22%
viability, T/C (second compound 0.000949 µM, first compound 0.01 µM): 18.4%
viability, T/C [1]: 16.5%
viability, T/C [2]: 8.34%
viability, T/C (second compound 0.003 µM, first compound 0.000316 µM): 30.4%
viability, T/C (second compound 0.003 µM, first compound 0.001 µM): 25%
viability, T/C (second compound 0.003 µM, first compound 0.00316 µM): 20.8%
viability, T/C (second compound 0.003 µM, first compound 0.01 µM): 18.1%
viability, T/C [7]: 12.2%
viability, T/C [8]: 8.88%
viability, T/C (second compound 0.00949 µM, first compound 0.000316 µM): 28%
viability, T/C (second compound 0.00949 µM, first compound 0.001 µM): 24.2%
viability, T/C (second compound 0.00949 µM, first compound 0.00316 µM): 22.4%
viability, T/C (second compound 0.00949 µM, first compound 0.01 µM): 17.7%
viability, T/C [13]: 12%
viability, T/C [14]: 9.44%
viability, T/C (second compound 0.03 µM, first compound 0.000316 µM): 26.2%
viability, T/C (second compound 0.03 µM, first compound 0.001 µM): 24.5%
viability, T/C (second compound 0.03 µM, first compound 0.00316 µM): 20.3%
viability, T/C (second compound 0.03 µM, first compound 0.01 µM): 18.6%
viability, T/C [19]: 10.4%
viability, T/C [20]: 9.27%
viability, T/C (second compound 0.0949 µM, first compound 0.000316 µM): 27.5%
viability, T/C (second compound 0.0949 µM, first compound 0.001 µM): 25.4%
viability, T/C (second compound 0.0949 µM, first compound 0.00316 µM): 24.9%
viability, T/C (second compound 0.0949 µM, first compound 0.01 µM): 15.9%
viability, T/C [25]: 9.52%
viability, T/C [26]: 10.3%
viability, T/C (second compound 0.3 µM, first compound 0.000316 µM): 24.9%
viability, T/C (second compound 0.3 µM, first compound 0.001 µM): 21.9%
viability, T/C (second compound 0.3 µM, first compound 0.00316 µM): 22.9%
viability, T/C (second compound 0.3 µM, first compound 0.01 µM): 16.1%
viability, T/C [31]: 10.5%
viability, T/C [32]: 9.53%

C[C@@H](NC(=O)c1ncnc(N)c1Cl)c1ncc(C(=O)Nc2cc(C(F)(F)F)c(Cl)cn2)s1 + CCn1c(-c2cccnc2C(C)OC)c2c3cc(ccc31)N1CCOC(CC(NC(=O)C(C(C)C)N(C)C(=O)C3(F)CCN(C(=O)C#CC(C)(C)N(C)C)CC3)C(=O)N3CCCC(N3)C(=O)OCC(C)(C)C2)C1
IC50 (second compound 0.000949 µM): < 31.6 nM
IC50 (second compound 0.003 µM): < 31.6 nM
IC50 (second compound 0.00949 µM): < 31.6 nM
IC50 (second compound 0.03 µM): < 31.6 nM
IC50 (second compound 0.0949 µM): < 31.6 nM
IC50 (second compound 0.3 µM): < 31.6 nM
viability, T/C [1]: 36.4%
viability, T/C [2]: 32.5%
viability, T/C [3]: 24.2%
viability, T/C [4]: 34.2%
viability, T/C [5]: 32.5%
viability, T/C [6]: 25.4%
viability, T/C [7]: 33%
viability, T/C [8]: 31.1%
viability, T/C [9]: 29.7%
viability, T/C [10]: 33.3%
viability, T/C [11]: 31.2%
viability, T/C [12]: 25.3%
viability, T/C [13]: 32.8%
viability, T/C [14]: 27.5%
viability, T/C [15]: 30.9%
viability, T/C [16]: 30.9%
viability, T/C [17]: 30.8%
viability, T/C [18]: 24.5%
viability, T/C [19]: 30.7%
viability, T/C [20]: 30.1%
viability, T/C [21]: 28.1%
viability, T/C [22]: 29.3%
viability, T/C [23]: 26.9%
viability, T/C [24]: 27.9%
viability, T/C [25]: 25.8%
viability, T/C [26]: 29.3%
viability, T/C [27]: 31.6%
viability, T/C [28]: 28.6%
viability, T/C [29]: 23.6%
viability, T/C [30]: 28.4%
viability, T/C [31]: 27.3%
viability, T/C [32]: 27.4%
viability, T/C [33]: 31%
viability, T/C [34]: 23.1%
viability, T/C [35]: 26.3%
viability, T/C [36]: 27.4%
